Like-named read-outs stand apart in the source and are kept apart here.
How the values were obtained:
Assay type in all cases: cell-based, Plasmodium falciparum
[1] = tested on: sphingomyelin synthase; assay: Inhibition of plasmodial sphingomyelin biosynthesis in intact infected erythrocytes (C6-NBD-ceramide to C6-NBD-sphingomyelin, TLC); conditions: for [%] inhibition of sphingomyelin biosynthetic activity: 5 μM of compound; for effect on enzyme (sphingomyelin synthase) activity: 5 μM, see Example 3
Procedure: 1×10^8 infected cells 24 h after invasion were washed serum-free in RPMI 1640 and preincubated for thirty min at 37° C. in 1 ml of RPMI 1640 containing 0-5 μM or 0-500 μM of PPMP. (C6-NBD-ceramide (N-[7-(4-nitrobenzo-2-oxa-1,3-diazide)]-6-aminocaproyl-D-erythro-sphingosine) was added to each sample at a final concentration of 5 μM, the samples further incubated for 30 min at 37° C. and cellular lipids extracted. C6-NBD-sphingomyelin was resolved by TLC and quantitated by fluorescence spectrophotometry as described previously. Bligh, E. G. and Dyer, W. Y. (1959) A rapid method for total lipid extraction and purification., Can. J. Biochem. Physiol. 37: 911-917. Haldar, K., Uyetake, L., Ahori, N., Elmendorf, H. G. and Lu, W-1. (1991) The accumulation and metabolism of a fluorescent ceramide derivative in Plasmodium falciparum--infected erythrocytes., Mo. Biochem. Parasitol. 49: 143-156. Elmendorf, H. G. and Haldar, K. (1994) Plasmodium falciparum exports the Golgi marker sphingomyelin synthase into a tubovesicular network in the cytoplasm of mature erythrocytes., J. Cell Biol. 124: 449-462. Each value obtained represented the mean of triplicate determinations from five experiments. The arrow bars indicate the standard deviations. The results are depicted in FIG. 1.
(§1) P. falciparum strain FCB was used for all experiments and cultured in vitro in according to a modification of the method of Trager and Jensen left off. Trager, W. and Jensen, J. B. (1976) Human malaria in continuous culture., Science (Wash. D.C.) 193: 673-675 Haldar, K., Ferguson, M. A. J. and Cross, G. A. M. (1985) Acylation of a Plasmodium falciparum merozoite surface antigen via sn-1, 2-diacyl glycerol. J. Biol. Chem. 260; 4969-4974. The culture medium contained RPMI 1640 supplemented with 25 Mm hepes, Ph 7.4/11 […] glucose/92 μM hypoxanthine/0.18% sodium bicarbonate/25 μM gentamicin and 10% AB^+ human sera. The parasites were grown in A^+ erythrocytes at 2.5-5% hematocrit. Parasite cultures were synchronized by separation of the early and late stages on a Percoll gradient. The subsequent reincubation of these stages in culture were used to obtain cells 12-24 h in the life cycle. Inhibition of sphingomyelin biosynthetic activity using 5 μM of the various compounds was carried out as described in Example 1. 5 μM of the various compounds were added to 0-12 h rings in the culture medium and cells were examined by Giemsa staining after 24 h.

[2] = tested on: P. falciparum strain FCB; assay: Inhibition of intraerythrocytic growth in culture, Giemsa staining after 24 h; conditions: for inhibition at 5 µM: Plasmodium falciparum, read-out: [%] inhibition of growth
Excerpt: as §1

[3] = tested on: P. falciparum; assay: Intraerythrocytic development in long term synchronized culture, parasitemia over consecutive cycles; conditions: Plasmodium falciparum; over three cycles of growth; read-out: lowest effective, killing concentration
Procedure: Synchronized cultures 12 h after invasion were subjected to different concentrations of PPMP. Parasitemias of drug-treated cultures were determined at various time points during two intraerythrocytic cycles and compared to cells grown in the absence of drug.
The effect of the single lipid analogs to inhibit parasite development in long term culture in consecutive cycles of the parasite growth were investigated. The studies were initiated with synchronized, young rings (0-12h) at 10% parasitemia. In order to ensure healthy growth of the malaria parasite in vitro, the parasitemias of the cultures are not allowed to exceed 10%. Yet under normal conditions a 3-6 fold increase in parasitemias is detected with each round of invasion: thus for each new cycle, the cultures were diluted 4-fold into fresh erythrocytes in the absence or presence of the drug. […] The lowest effective, killing concentration of PDMP over three cycles of growth is 1.0 μM.

[4] = tested on: P. falciparum schizonts and merozoites; assay: Schizont maturation and merozoite invasion in the presence of drug; conditions: 5 μM
Procedure: Schizont-stage parasites isolated over Percoll were allowed to invade in the presence of RPMI 1640 containing 10% human serum or in the presence of RPMI 1640 containing 10% human serum and 5 μM PPMP. 1×10^8 infected erythrocytes of the appropriate stage were incubated in 1 ml of RPMI 1640 supplemented with 2mg/ml defatted BSA and 20 μM C5 -DMB-ceramide. Cells were washed and fixed as described in Example 5. Sequential micrographs were taken on a custom made laser confocal microscope at 400 nm intervals along the Z axis. Raw data were processed as described previously.
Furthermore, the released daughter merozoites enter red cells to form new rings in the continued presence of the drug. This supports the conclusion that the parasite sphingomyelin synthase is essential only to ring and trophozoite-infected red cells in the first 30 to 36 h of intraerythrocytic development.
To determine whether the parasite specific sphingomyelin synthase activity is required for the development of the TVM, ring-infected erythrocytes inhibited in the enzyme from the onset of intra- erythrocytic development were employed. […] Optical sections obtained by staining with C5 DMB-ceramide were observed. A tubular structure was seen extending from the body of the parasite apparently connected to a larger vesicle in the red cell. In rings formed in the presence of PPMP, the intraerythrocytic structures are seen as discrete domains, separated from each other in all three sections. […] Thus, specific inhibition of the parasite's sphingomyelin biosynthetic activity appears to alter the interconnected "tubovesicular morphology" of the TVM into isolated intraerythrocytic compartments or "vesicles" in ring stage parasites.

[5] = 5 μM added to 0-12 h rings, Giemsa staining after 24 h

Compound	[%] inhibition of sphingomyelin biosynthetic activity [1]	inhibition at 5 µM [2, 5]	also measured
CCCCCCCCCCCCCCC[C@H](O)[C@@H](N)CO (racemic) [dl-dihydrosphingosine]	4%	–	effect on enzyme (sphingomyelin synthase) activity [1]: no effect; [%] inhibition of growth [2, 5]: 8%
CCCCCCCCCC(=O)N[C@@H](CN1CCOCC1)[C@H](O)c1ccccc1 (relative stereo) [dl-erythro-PDMP]	–	5%	–
CCCCCCCCCC(=O)N[C@H](CN1CCOCC1)[C@H](O)c1ccccc1 (relative stereo) [dl-threo-PDMP, dl-threo-1-phenyl-2-decanoylamino-3-morpholino-1-propanol]	–	100%	minimal effective concentration [3]: 1 µM; fate of schizonts greater than 40 h in the cycle [4]: mature and rupture
CCN(CC)CCO[C@H]1CC[C@@]2(C)C(=CC[C@@H]3[C@@H]2CC[C@]2(C)C(=O)CC[C@@H]32)C1 [U 18666 A]	0%	1%	–
CN(C)CCCN1c2ccccc2CCc2ccccc21 [imipramine]	0%	–	inhibition at 5 µM [2]: 7%
CCCCCCCCCCCCC/C=C/[C@@H](O)[C@@H](N)CO [sphingosine]	0%	–	effect on enzyme (sphingomyelin synthase) activity [1]: no effect; inhibition at 5 µM [2]: 0%
CCCCCCCCCCCCCCCCCCN [stearylamine]	–	0%	–
